*1 amine or outer side, *2 acyl side, *3 side chain or, on linkers, in order; H or OH if unused. Where a SMILES comes first, the peptide text is derived from it. Bridges are numbered along the chain shown (N, C = ends). [ ]: non-standard residue; d: D form. TATA = O=C(CC[*:1])N1CN(C(=O)CC[*:2])CN(C(=O)CC[*:3])C1; 1Nal = N[C@@H](Cc1cccc2ccccc12)C(=O)O; NMeT = CN[C@H](C(=O)O)[C@@H](C)O; hArg = N=C(N)NCCCC[C@H](N)C(=O)O

This assay has as its target T1, human Nectin-4 (Homo sapiens, UniProt Q96NY8).
T1 sequence (Q96NY8 32-510): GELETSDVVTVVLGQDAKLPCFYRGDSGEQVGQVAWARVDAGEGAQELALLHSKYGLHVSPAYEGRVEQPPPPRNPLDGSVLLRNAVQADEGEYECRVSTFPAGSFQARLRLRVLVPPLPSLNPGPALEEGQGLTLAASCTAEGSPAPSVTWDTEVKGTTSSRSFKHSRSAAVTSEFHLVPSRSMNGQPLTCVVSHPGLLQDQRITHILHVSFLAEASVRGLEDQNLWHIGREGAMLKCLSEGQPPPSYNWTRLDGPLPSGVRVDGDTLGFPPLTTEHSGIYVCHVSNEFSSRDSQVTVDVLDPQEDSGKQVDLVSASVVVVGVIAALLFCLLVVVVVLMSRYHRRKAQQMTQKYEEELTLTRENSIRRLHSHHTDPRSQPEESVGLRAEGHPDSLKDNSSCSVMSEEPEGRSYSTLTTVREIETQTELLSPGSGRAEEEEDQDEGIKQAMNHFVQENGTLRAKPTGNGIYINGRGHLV
The assay is described as follows: Nectin-4 competition binding assay (fluorescence polarisation). The settings on record: competition with fluorescent peptide SEQ ID NO: 217; read-out: Ki. The method in brief:
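Serially diluted (1 in 2) peptides, max 5% DMSO, were mixed with human Nectin-4 and a fluorescent tracer peptide; FP read as in the direct binding assay. Ki from fitting mP values to a cubic competition equation using tracer concentration, tracer Kd and Nectin-4 concentration.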
(In general: Fluorescence polarisation rises when a labelled molecule tumbles more slowly, as on binding a larger partner.)
By Ki is commonly meant a dissociation constant, usually derived from enzyme kinetics or from competition with a known ligand. `CC[C@H](C)[C@@H]1NC(=O)[C@@H]2CCCN2C(=O)[C@H](Cc2c[nH]c3ccccc23)NC(=O)[C@H](CO)NC(=O)[C@H](Cc2cccc3ccccc23)NC(=O)[C@H](CC(N)=O)NC(=O)[C@H](CCCCN)NC(=O)[C@H](CCSC)NC(=O)[C@@H]2CSCCC(=O)N3CN(CN(C3)C(=O)CCSC[C@H](NC(C)=O)C(=O)N3CCC[C@H]3C(=O)N[C@@H](Cc3ccccc3)C(=O)NCC(=O)N2)C(=O)CCSC[C@@H](C(N)=O)NC(=O)[C@H](Cc2c[nH]c3ccccc23)NC1=O` [BCY7663, Ac-(SEQ ID NO: 111)]: the Ki turned out to be 25.5 nM. Under `CC[C@H](C)[C@@H]1NC(=O)[C@@H]2CCCN2C(=O)[C@H]([C@@H](C)O)NC(=O)[C@H](CO)NC(=O)[C@H](Cc2c[nH]c3ccccc23)NC(=O)[C@H](CC(N)=O)NC(=O)[C@H](CCCCN)NC(=O)[C@H](CCSC)NC(=O)[C@@H]2CSCCC(=O)N3CN(CN(C3)C(=O)CCSC[C@H](NC(C)=O)C(=O)N3CCC[C@H]3C(=O)N[C@@H](Cc3ccccc3)C(=O)NCC(=O)N2)C(=O)CCSC[C@@H](C(N)=O)NC(=O)[C@H](Cc2c[nH]c3ccccc23)NC1=O` [BCY7665, Ac-(SEQ ID NO: 19)] (Ac-CPFGCMKNWSTPIWC-NH2; linker 1-5-15 via TATA; C-terminus assumed) stands 24.1 nM; under `CC[C@H](C)[C@@H]1NC(=O)[C@@H]2CCCN2C(=O)[C@H]([C@@H](C)O)NC(=O)[C@H](CO)NC(=O)[C@H](Cc2c[nH]c3ccccc23)NC(=O)[C@H](CCCCN)NC(=O)[C@H](CCCCNC(=N)N)NC(=O)[C@H](CCSC)NC(=O)[C@@H]2CSCCC(=O)N3CN(CN(C3)C(=O)CCSC[C@H](NC(C)=O)C(=O)N3CCC[C@H]3C(=O)N[C@@H](Cc3ccccc3)C(=O)N[C@H](CC(=O)O)C(=O)N2)C(=O)CCSC[C@@H](C(N)=O)NC(=O)[C@H](Cc2c[nH]c3ccccc23)NC1=O` [BCY7822, Ac-(SEQ ID NO: 122)], 27 nM; under `CC[C@H](C)[C@@H]1NC(=O)[C@@H]2CCCN2C(=O)[C@H]([C@@H](C)O)NC(=O)[C@H](CO)NC(=O)[C@H](Cc2c[nH]c3ccccc23)NC(=O)[C@H](CC(N)=O)NC(=O)[C@H](CCCCNC(=N)N)NC(=O)[C@H](CCSC)NC(=O)[C@@H]2CSCCC(=O)N3CN(CN(C3)C(=O)CCSC[C@H](NC(C)=O)C(=O)N3CCC[C@H]3C(=O)N[C@@H](Cc3ccccc3)C(=O)N[C@H](CCC(=O)O)C(=O)N2)C(=O)CCSC[C@@H](C(N)=O)NC(=O)[C@H](Cc2c[nH]c3ccccc23)NC1=O` [BCY7903, Ac-(SEQ ID NO: 140)], 41 nM.

With `CC[C@H](C)[C@@H]1NC(=O)[C@@H]2CCCN2C(=O)[C@H]([C@@H](C)O)NC(=O)[C@H](CO)NC(=O)[C@H](Cc2c[nH]c3ccccc23)NC(=O)[C@H](CC(N)=O)NC(=O)[C@H](CCCCNC(=N)N)NC(=O)[C@H](CCSC)NC(=O)[C@@H]2CSCCC(=O)N3CN(CN(C3)C(=O)CCSC[C@H](NC(C)=O)C(=O)N3CCC[C@H]3C(=O)N[C@@H](Cc3ccccc3)C(=O)N[C@H](CO)C(=O)N2)C(=O)CCSC[C@@H](C(N)=O)NC(=O)[C@H](Cc2c[nH]c3ccccc23)NC1=O` [BCY7907, Ac-(SEQ ID NO: 143)], the Ki was determined as 10 nM. As to `CC[C@H](C)[C@@H]1NC(=O)[C@@H]2CCCN2C(=O)[C@H]([C@@H](C)O)N(C)C(=O)[C@H](CO)NC(=O)[C@H](Cc2c[nH]c3ccccc23)NC(=O)[C@H](CC(N)=O)NC(=O)[C@H](CCCCNC(=N)N)NC(=O)[C@@H]2CSCCC(=O)N3CN(CN(C3)C(=O)CCSC[C@H](NC(C)=O)C(=O)N3CCC[C@H]3C(=O)N[C@@H](Cc3ccccc3)C(=O)N[C@H](CC(=O)O)C(=O)N2)C(=O)CCSC[C@@H](C(N)=O)NC(=O)[C@H](Cc2c[nH]c3ccccc23)NC1=O` [BCY7979, Ac-(SEQ ID NO: 152)] (Ac-CPF[dD]C[hArg]NWS[NMeT]PIWC-NH2; linker 1-5-14 via TATA; C-terminus assumed), the Ki was determined as 191 nM. For the molecule `CC[C@H](C)[C@@H]1NC(=O)[C@H](CCCNC(=N)N)NC(=O)[C@H](CC(N)=O)NC(=O)[C@@H]2CSCCC(=O)N3CN(CN(C3)C(=O)CCSC[C@H](NC(=O)[C@H](Cc3c[nH]c4ccccc34)NC(=O)[C@H](CCCCN)NC(=O)[C@H](CCC(N)=O)NC(C)=O)C(=O)N[C@@H](C)C(=O)N3CCC[C@H]3C(=O)N[C@@H](CC(C)C)C(=O)N[C@@H](CO)C(=O)N[C@@H](CC(=O)O)C(=O)N[C@@H](Cc3ccc(O)cc3)C(=O)N[C@@H](Cc3cccc4ccccc34)C(=O)N2)C(=O)CCSC[C@@H](C(N)=O)NC1=O` [BCY7998, Ac-QKW-(SEQ ID NO: 153)] (Ac-QKWCAPLSDY[1Nal]CNRIC-NH2; linker 4-12-16 via TATA; C-terminus assumed), the Ki is 135 nM.

Regarding `CC[C@H](C)[C@@H]1NC(=O)[C@@H]2CCCN2C(=O)[C@H]([C@@H](C)O)NC(=O)[C@H](CO)NC(=O)[C@H](Cc2c[nH]c3ccccc23)NC(=O)[C@H](CC(N)=O)NC(=O)[C@H](CCCCNC(=N)N)NC(=O)[C@H](CCSC)NC(=O)[C@@H]2CSCCC(=O)N3CN(CN(C3)C(=O)CCSC[C@H](NC(=O)[C@H](CC(=O)O)NC(=O)[C@H](CC(=O)O)NC(=O)[C@H](CC(=O)O)NC(C)=O)C(=O)N3CCC[C@H]3C(=O)N[C@@H](Cc3ccccc3)C(=O)N[C@H](CC(=O)O)C(=O)N2)C(=O)CCSC[C@@H](C(N)=O)NC(=O)[C@H](Cc2c[nH]c3ccccc23)NC1=O` [BCY8028, Ac-DDD-(SEQ ID NO: 115)], the Ki worked out at 61.9 nM.

Take `CC[C@H](C)[C@@H]1NC(=O)[C@@H]2CCCN2C(=O)[C@H]([C@@H](C)O)NC(=O)[C@H](CO)NC(=O)[C@H](Cc2c[nH]c3ccccc23)NC(=O)[C@H](CC(N)=O)NC(=O)[C@H](CCCCNC(=N)N)NC(=O)[C@H](CC(C)C)NC(=O)[C@@H]2CSCCC(=O)N3CN(CN(C3)C(=O)CCSC[C@H](NC(C)=O)C(=O)N3CCC[C@H]3C(=O)N[C@@H](Cc3ccccc3)C(=O)N[C@H](CC(=O)O)C(=O)N2)C(=O)CCSC[C@@H](C(N)=O)NC(=O)[C@H](Cc2c[nH]c3ccccc23)NC1=O` [BCY8039, Ac-(SEQ ID NO: 161)] (Ac-CPF[dD]CL[hArg]NWSTPIWC-NH2; linker 1-5-15 via TATA; C-terminus assumed): the Ki amounted to 21.4 nM. For `CC[C@H](C)[C@@H]1NC(=O)[C@H](CCCNC(=N)N)NC(=O)[C@H](CC(N)=O)NC(=O)[C@@H]2CSCCC(=O)N3CN(CN(C3)C(=O)CCSC[C@H](NC(C)=O)C(=O)N[C@@H](C)C(=O)N3CCC[C@H]3C(=O)N[C@@H](CC(C)C)C(=O)N[C@@H](CO)C(=O)N[C@@H](CC(=O)O)C(=O)N[C@@H](Cc3ccc(O)cc3)C(=O)N[C@@H](Cc3c[nH]c4ccccc34)C(=O)N2)C(=O)CCSC[C@@H](C(N)=O)NC1=O` [BCY8044, Ac-(SEQ ID NO: 34)] (Ac-CAPLSDYWCNRIC-NH2; linker 1-9-13 via TATA; C-terminus assumed), the inhibition constant (Ki) came to 170 nM. Regarding `CC[C@H](C)[C@@H]1NC(=O)[C@@H]2CCCN2C(=O)[C@H]([C@@H](C)O)NC(=O)[C@H](CO)NC(=O)[C@H](Cc2c[nH]c3ccccc23)NC(=O)[C@H](CC(N)=O)N(C)C(=O)[C@H](CCCCNC(=N)N)NC(=O)[C@H](CCSC)NC(=O)[C@@H]2CSCCC(=O)N3CN(CN(C3)C(=O)CCSC[C@H](NC(C)=O)C(=O)N3CCC[C@H]3C(=O)N[C@@H](Cc3ccccc3)C(=O)N[C@H](CC(=O)O)C(=O)N2)C(=O)CCSC[C@@H](C(N)=O)NC(=O)[C@H](Cc2c[nH]c3ccccc23)NC1=O` [BCY8154, Ac-(SEQ ID NO: 174)], the Ki worked out at 8 nM. As to `CC[C@H](C)[C@H]1C(=O)N[C@@H](Cc2c[nH]c3ccccc23)C(=O)N[C@H](C(N)=O)CSCCC(=O)N2CN3CN(C2)C(=O)CCSC[C@H](NC(C)=O)C(=O)N2CCC[C@H]2C(=O)N[C@@H](Cc2ccccc2)C(=O)N[C@H](CC(=O)O)C(=O)N[C@@H](CSCCC3=O)C(=O)N[C@@H](CCSC)C(=O)N[C@@H](CCCCNC(=N)N)C(=O)N[C@@H](CC(N)=O)C(=O)N[C@@H](Cc2c[nH]c3ccccc23)C(=O)N[C@@H](CO)C(=O)N[C@@H]([C@@H](C)O)C(=O)N2CCC[C@H]2C(=O)N1C` [BCY8158, Ac-(SEQ ID NO: 176)], the Ki amounted to 177 nM.

With `CSCC[C@@H]1NC(=O)[C@@H]2CSCCC(=O)N3CN(CN(C3)C(=O)CCSC[C@H](NC(C)=O)C(=O)N3CCC[C@H]3C(=O)N[C@@H](Cc3cccc4ccccc34)C(=O)N[C@H](CC(=O)O)C(=O)N2)C(=O)CCSC[C@@H](C(N)=O)NC(=O)[C@H](Cc2c[nH]c3ccccc23)NC(=O)[C@@H]2C[C@@H](O)CN2C(=O)[C@@H]2CCCN2C(=O)[C@H]([C@@H](C)O)NC(=O)[C@H](CO)NC(=O)[C@H](Cc2c[nH]c3ccccc23)NC(=O)[C@H](CC(=O)O)NC(=O)[C@H](CCNC(=N)N)NC1=O` [BCY8181, Ac-(SEQ ID NO: 186)], the Ki worked out at 3.5 nM. Turning to `CSCC[C@@H]1NC(=O)[C@@H]2CSCCC(=O)N3CN(CN(C3)C(=O)CCSC[C@H](NC(C)=O)C(=O)N3CCC[C@H]3C(=O)N[C@@H](Cc3cccc4ccccc34)C(=O)N[C@H](CCCNC(=N)N)C(=O)N2)C(=O)CCSC[C@@H](C(N)=O)NC(=O)[C@H](Cc2c[nH]c3ccccc23)NC(=O)[C@@H]2C[C@@H](O)CN2C(=O)[C@@H]2CCCN2C(=O)[C@H]([C@@H](C)O)NC(=O)[C@H](CCO)NC(=O)[C@H](Cc2c[nH]c3ccccc23)NC(=O)[C@H](CC(=O)O)NC(=O)[C@H](CCCCNC(=N)N)NC1=O` [BCY8188, Ac-(SEQ ID NO: 193)], the Ki was found to be 20 nM.

Values taken from patent publication US12459974B2, “Bicyclic peptide ligands specific for Nectin-4” (priority 2018, dated 2025).
